These results are taken from US10117878B2, “Ligands for nematode nuclear receptors and uses thereof” (priority 2006, dated 2018).

One assay deals with T1, GAL4-DAF-12 (Caenorhabditis elegans, UniProt G5EFF5).
T1 construct: 184-754aa (DAF-12); expressed in transfected cells; host or cells: HEK293
T1 sequence (G5EFF5 184-753): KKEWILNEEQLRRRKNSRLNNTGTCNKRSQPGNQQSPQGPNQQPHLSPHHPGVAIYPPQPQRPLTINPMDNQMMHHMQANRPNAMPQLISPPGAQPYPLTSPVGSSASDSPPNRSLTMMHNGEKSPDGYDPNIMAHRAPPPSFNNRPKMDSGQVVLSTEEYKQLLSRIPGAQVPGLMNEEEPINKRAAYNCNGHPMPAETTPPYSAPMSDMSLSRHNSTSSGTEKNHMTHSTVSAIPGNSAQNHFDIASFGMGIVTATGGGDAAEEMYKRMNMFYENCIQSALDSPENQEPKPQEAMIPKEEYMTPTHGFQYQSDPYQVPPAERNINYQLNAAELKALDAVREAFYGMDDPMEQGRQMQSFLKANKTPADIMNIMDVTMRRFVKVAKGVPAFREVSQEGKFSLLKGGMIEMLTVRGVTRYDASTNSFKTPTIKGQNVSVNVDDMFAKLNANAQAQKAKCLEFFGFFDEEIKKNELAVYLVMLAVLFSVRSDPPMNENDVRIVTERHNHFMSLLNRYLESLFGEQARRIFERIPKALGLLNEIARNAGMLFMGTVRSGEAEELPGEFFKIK
Kind of assay: Co-transfection assay: GAL4-DAF-12 and GAL4-responsive luciferase reporter in HEK293 cells. The class given is cell-based, C. elegans. The conditions noted are these: bile acids 10 μM with IBAT co-transfected; assays in the presence or absence of co-transfected DAF-9. (In general: In a reporter assay the amount or activity of a reporter protein is the signal.)
In the case of `C[C@]12C[C@H](O)[C@H]3[C@@H](CCC4=CC(=O)CC[C@@]43C)[C@@H]1CC[C@@H]2C(=O)CO` [corticosterone], the “Activation of DAF-12, initial compound screen” value (from here on “Activation”) was “No other bile acids or endocrine hormones tested activated DAF-12”.

Regarding `C[C@H](CCC(=O)O)[C@H]1CC[C@H]2[C@@H]3C(=O)C[C@@H]4C[C@H](O)CC[C@]4(C)[C@H]3CC[C@]12C` [7-keto-lithocholic acid], the “Activation” value is listed as “No other bile acids or endocrine hormones tested activated DAF-12”.

Take `CC(=O)[C@H]1CC[C@H]2[C@@H]3CCC4=CC(=O)CC[C@]4(C)[C@H]3CC[C@]12C` [progesterone]: the “Activation” value is “No other bile acids or endocrine hormones tested activated DAF-12”.

As for `C[C@H](CCC(=O)O)[C@H]1CC[C@H]2[C@@H]3CC(=O)[C@@H]4C[C@H](O)CC[C@]4(C)[C@H]3CC[C@]12C` [6-keto-lithocholic acid], the “Activation” value was “No other bile acids or endocrine hormones tested activated DAF-12”.

In the case of `C[C@H](CCC(=O)O)[C@H]1CC[C@H]2[C@@H]3[C@H](O)C[C@@H]4C[C@H](O)CC[C@]4(C)[C@H]3CC[C@]12C` [chenodeoxycholic acid], the “Activation” value is listed as “No other bile acids or endocrine hormones tested activated DAF-12”.

Regarding `C=C1/C(=C\C=C2/CCC[C@]3(C)[C@@H]([C@H](C)CCCC(C)(C)O)CC[C@@H]23)C[C@@H](O)C[C@@H]1O` [1,25-dihydroxyvitamin D3], the “Activation” value was “No other bile acids or endocrine hormones tested activated DAF-12”.

For the compound `CC(=O)[C@H]1CC[C@H]2[C@@H]3CC=C4C[C@@H](O)CC[C@]4(C)[C@H]3CC[C@]12C` [pregnenolone], the “Activation” value is “No other bile acids or endocrine hormones tested activated DAF-12”.

On to `C[C@H](CCC(=O)O)[C@H]1CC[C@H]2[C@@H]3CC[C@@H]4CC(=O)CC[C@]4(C)[C@H]3CC[C@]12C` [3-keto-lithocholic acid], for which the “Activation” value is on record as “weak, micromolar activator of DAF-12 independent of DAF-9”.

For `CC(C)(O)CC[C@@H](O)[C@](C)(O)[C@H]1CC[C@@]2(O)C3=CC(=O)[C@@H]4C[C@@H](O)[C@@H](O)C[C@]4(C)[C@H]3CC[C@]12C` [20-hydroxyecdysone], the “Activation” value was “No other bile acids or endocrine hormones tested activated DAF-12”.

Regarding `C[C@]12CC[C@H]3[C@@H](CCC4=CC(=O)CC[C@@]43C)[C@@H]1CC[C@@H]2O` [testosterone], the “Activation” value is “No other bile acids or endocrine hormones tested activated DAF-12”.

For `C[C@H](CCC(=O)O)[C@H]1CC[C@H]2[C@@H]3[C@H](O)C[C@@H]4C[C@H](O)CC[C@]4(C)[C@H]3C[C@H](O)[C@]12C` [cholic acid], the “Activation” value was “No other bile acids or endocrine hormones tested activated DAF-12”.

The subject of another assay is daf-9(dh6) null worms. Kind of assay: Rescue of daf-9 null worms by extracts of sterols incubated with DAF-9 or control microsomes. The conditions noted are these: extracts from DAF-9 microsomes incubated with 100 μM sterol.
Experimental: Microsomes containing hOR or hOR and Daf-9 generated from Sf9 cells were thawed on ice and added to a final concentration of 0.5 mg/mL in 0.1M potassium phosphate buffer in the presence of an NADPH regenerating system (50 U/mL DL-isocitrate dehydrogenase, 0.1 M isocitrate and 0.1 M MgCl2). Substrates were added from stock solutions at 10^−2 M to a final concentration of 100 μM (final reaction volume of 0.5 mL). The mixture was preincubated for 3 min at 37° C. and the reaction was initiated by the addition of NADPH (1 mM). After 16 hrs, the reactions were stopped by extraction with 2×2 mL of methyl-tert-butyl-ether and the top layers were combined and dried under nitrogen. In some experiments, 0.5 μg of 1,4-cholestadiene-3-one was added as an internal standard for the extraction.
Individual 3-keto sterols and their respective 3β-hydroxy sterols were incubated with Sf9 cell microsomes co-expressing DAF-9 and the human P450 oxidoreductase (hOR). As a control, microsomes from cells expressing hOR alone were used.
In the case of `CC(C)CCC[C@@H](C)[C@H]1CC[C@H]2[C@@H]3CC=C4C[C@@H](O)CC[C@]4(C)[C@H]3CC[C@]12C` [cholesterol], the “effect on daf-9 animals, DAF-9 microsomes (in words)” value was “no effect was seen”.

The assay is the same for the next values; noted with them: extracts from control (hOR only) microsomes incubated with 100 μM sterol.
Consider `CC(C)CCC[C@@H](C)[C@H]1CC[C@H]2[C@@H]3CC=C4C[C@@H](O)CC[C@]4(C)[C@H]3CC[C@]12C` [cholesterol], for which the “effect on daf-9 phenotypes, control microsomes (in words)” value is listed as “no effect was seen”.
